Series [1] deals with off-target enzymes and receptors. Nature of the series: Selectivity against off-target enzymes and receptors.
The nature of series [2]: Toxicity (weight loss) over 7 day dosing. Type of series: in vivo. The settings on record: low toxicity, no significant weight loss.
For the next series, the target named is hERG (Homo sapiens, UniProt Q12809). The series is described as follows: hERG activity. As to conditions: low hERG activity is defined as IC50>1 μM.
For series [3], the system named is human umbilical vein endothelial cells (HUVECs). As to conditions: HUVEC proliferation; initial study of Aoki et al.; read-out: IC50, anti-proliferative activity against HUVECs; cited from earlier work.
A short description of series [4]: Tolerability of once-daily dosing in mice (weight loss). As to conditions: once-daily at a dose that fully inhibits CDK8 kinase activity in vivo, experiment terminated.

Sequence of hERG (Q12809 whole entry): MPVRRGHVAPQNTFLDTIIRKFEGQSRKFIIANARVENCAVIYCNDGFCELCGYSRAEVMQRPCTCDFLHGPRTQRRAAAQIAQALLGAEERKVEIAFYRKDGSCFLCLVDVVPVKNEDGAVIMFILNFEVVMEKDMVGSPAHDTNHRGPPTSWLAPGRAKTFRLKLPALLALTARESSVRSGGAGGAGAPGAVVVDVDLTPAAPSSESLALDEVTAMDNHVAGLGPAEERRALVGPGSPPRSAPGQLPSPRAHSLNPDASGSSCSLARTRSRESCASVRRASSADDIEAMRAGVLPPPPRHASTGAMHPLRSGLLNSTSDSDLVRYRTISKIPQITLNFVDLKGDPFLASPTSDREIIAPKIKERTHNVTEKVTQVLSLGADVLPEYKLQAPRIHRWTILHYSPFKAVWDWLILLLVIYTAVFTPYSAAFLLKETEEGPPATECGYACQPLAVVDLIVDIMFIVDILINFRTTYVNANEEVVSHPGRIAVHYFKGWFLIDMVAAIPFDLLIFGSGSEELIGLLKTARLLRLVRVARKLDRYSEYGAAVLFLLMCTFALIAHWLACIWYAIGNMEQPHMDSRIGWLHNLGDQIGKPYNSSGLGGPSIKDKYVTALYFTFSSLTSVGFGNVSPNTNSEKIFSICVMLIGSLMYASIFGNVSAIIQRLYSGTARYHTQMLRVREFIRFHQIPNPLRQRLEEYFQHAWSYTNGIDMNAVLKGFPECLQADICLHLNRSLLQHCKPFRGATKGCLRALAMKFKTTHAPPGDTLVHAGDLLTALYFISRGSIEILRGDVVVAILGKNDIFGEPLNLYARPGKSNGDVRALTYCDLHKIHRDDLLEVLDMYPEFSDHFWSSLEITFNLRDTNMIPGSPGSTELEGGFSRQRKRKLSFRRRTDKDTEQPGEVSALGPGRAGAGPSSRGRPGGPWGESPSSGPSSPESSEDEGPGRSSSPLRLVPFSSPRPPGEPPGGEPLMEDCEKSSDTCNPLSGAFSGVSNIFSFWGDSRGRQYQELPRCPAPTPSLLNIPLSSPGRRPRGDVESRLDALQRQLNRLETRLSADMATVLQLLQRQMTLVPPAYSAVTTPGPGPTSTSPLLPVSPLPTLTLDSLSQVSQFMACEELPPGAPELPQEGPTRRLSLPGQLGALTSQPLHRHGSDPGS

As to `C[C@]12CC=C3C=C4CC[C@@H](O)C[C@]45CC[C@]3(O5)[C@@H]1CC[C@@H]2c1ccc2ccncc2c1` [Compound A, (3S,3 aR,9R,10aR,12aS,12bR)-3-(isoquinolin-7-yl)-3a-methyl-1,2,3,3 a,4,7,8,9,10,11,12,12b-dodecahydro-10a,12a-epoxybenzo[4,5]cyclohepta[1,2-e]inden-9-ol], in series [1], the “selectivity against off-target enzymes and receptors” value was “high selectivity”. In addition, the weight loss in series [2] is on record as < 15%. In addition, at hERG, the IC50 is > 1000 nM.
On to Cortistatin A, for which, in series [3], the IC50 is 1.8 nM. Further, the “weight loss in the animal” value in series [4] is listed as “unacceptable weight loss”.
